Our source for the IC50 and melting point values is patent US7612113B2, “Hydroxy tetrahydro-naphthalenylurea derivatives” (Xention Limited, priority 2002, dated 2009).

What is called melting point is the temperature of the solid-liquid transition.

The target of data set [1] is T1, human VR1 (Homo sapiens, UniProt Q8NER1).
T1 construct: expressed in transfected cells
The experiment in a line: capsaicin-induced Ca2+ influx in the human VR1-transfected CHO cell line (Assay 1). In kind it is cell-based. The settings on record: 10 nM capsaicin, human VR1-CHOluc9aeq cells. From the text:
[Measurement of capsaicin-induced Ca^2+ influx in the human VR1-transfected CHO cell line] (Assay 1)
• (1) Establishment of the Human VR1-CHOluc9aeq Cell Line • Human vanilloid receptor (hVR1) cDNA was cloned from libraries of axotomized dorsal root ganglia (WO 00/29577). The cloned hVR1 cDNA was constructed with pcDNA3 vector and transfected into a CHOluc9aeq cell line. The cell line contains aequorin and CRE-luciferase reporter genes as read-out signals. The transfectants were cloned by limiting dilution in selection medium (DMEM/F12 medium (Gibco BRL) supplemented with 10% FCS, 1.4 mM Sodium pyruvate, 20 mM HEPES, 0.15% Sodium bicarbonate, 100 U/ml penicillin, 100 μg/ml streptomycin, 2 mM glutamine, non-essential amino acids and 2 mg/ml G418). Ca^2+ influx was examined in the capsaicin-stimulated clones. A high responder clone was selected and used for further experiments in the project. The human VR1-CHOluc9aeq cells were maintained in the selection medium and passaged every 3-4 days at 1-2.5×10^5 cells/flask ([…]). • (2) Measurement of Ca^2+ Influx Using FDSS-3000 • Human VR1-CHOluc9aeq cells were suspended in a culture medium which is the same as the selection medium except for G418 and seeded at a density of 1,000 cells per well into 384-well plates (black walled clear-base/Nalge Nunc International). Following the culture for 48 hrs the medium was changed to 2 μM Fluo-3 AM (Molecular Probes) and 0.02% Puronic F-127 in assay buffer (Hank's balanced salt solution (HBSS), 17 mM HEPES (pH7.4), 1 mM Probenecid, 0.1% BSA) and the cells were incubated for 60 min at. 25° C. After washing twice with assay buffer the cells were incubated with a test compound or vehicle for 20 min at 25° C. Mobilization of cytoplasmic Ca^2+ was measured by FDSS-3000 (λex=488 nm, λem=540 nm/Hamamatsu Photonics) for 60 sec after the stimulation with 10 nM capsaicin. Integral R was calculated and compared with controls. [Measurement of the Capsaicin-Induced Ca^2+ Influx in Primary Cultured Rat Dorsal Root Ganglia Neurons] (Assay 2) • (1) Preparation of Rat Dorsal Root Ganglia Neurons • New born Wister rats (5-11 days) were sacrificed and dorsal root ganglia (DRG) was removed. DRG was incubated with 0.1% trypsin (Gibco BRL) in PBS(−) (Gibco BRL) for 30 min at 37° C., then a half volume of fetal calf serum (FCS) was added and the cells were spun down. The DRG neuron cells were resuspended in Ham F12/5% FCS/5% horse serum (Gibco BRL) and dispersed by repeated pipetting and passing through 70 μm mesh Falcon). The culture plate was incubated for 3 hours at 37° C. to remove contaminating Schwann cells. Non-adherent cells were recovered and further cultured in laminin-coated 384 well plates (Nunc) at 1×10^4 cells/50 μl/well for 2 days in the presence of 50 ng/ml recombinant rat NGF (Sigma) and 50 μM 5-fluorodeoxyuridine (Sigma). • (2) Ca^2+ Mobilization Assay • DRG neuron cells were washed twice with HBSS supplemented with 17 mM HEPES (pH 7.4) and 0.1% BSA. After incubating with 2 μM fluo-3AM (Molecular Probe), 0.02% PF127 (Gibco BRL) and 1 mM probenecid (Sigma) for 40 min at 37° C., cells were washed 3 times. The cells were incubated with VR1 antagonists or vehicle (dimethylsulphoxide) and then with 1 μM capsaicin in FDSS-6000 (λex=480 nm, λem=520 nm/Hamamatsu Photonics). The fluorescence changes at 480 nm were monitored for 2.5 min. Integral R was calculated and compared with controls. [Organ Bath Assay to Measure the Capsaicin-Induced Bladder Contraction] (Assay 3)
The data corresponds to the compounds as yielded by solid phase synthesis and thus to levels of purity of about 40 to 90%. For practical reasons, the compounds are grouped in four classes of activity as follows: IC50=A(<or=)0.1 μM<B(<or=)0.5 μM<C(<or=)1 μM<D

[2] abbreviates: Table 1, read-out: activity class.
Where [3] appears, read: read-out: In vitro activity class.
Setting [4] is: Table 3, read-out: activity class.

Where two headings read alike, the source gives them in different places.

T1 sequence (Q8NER1 whole entry): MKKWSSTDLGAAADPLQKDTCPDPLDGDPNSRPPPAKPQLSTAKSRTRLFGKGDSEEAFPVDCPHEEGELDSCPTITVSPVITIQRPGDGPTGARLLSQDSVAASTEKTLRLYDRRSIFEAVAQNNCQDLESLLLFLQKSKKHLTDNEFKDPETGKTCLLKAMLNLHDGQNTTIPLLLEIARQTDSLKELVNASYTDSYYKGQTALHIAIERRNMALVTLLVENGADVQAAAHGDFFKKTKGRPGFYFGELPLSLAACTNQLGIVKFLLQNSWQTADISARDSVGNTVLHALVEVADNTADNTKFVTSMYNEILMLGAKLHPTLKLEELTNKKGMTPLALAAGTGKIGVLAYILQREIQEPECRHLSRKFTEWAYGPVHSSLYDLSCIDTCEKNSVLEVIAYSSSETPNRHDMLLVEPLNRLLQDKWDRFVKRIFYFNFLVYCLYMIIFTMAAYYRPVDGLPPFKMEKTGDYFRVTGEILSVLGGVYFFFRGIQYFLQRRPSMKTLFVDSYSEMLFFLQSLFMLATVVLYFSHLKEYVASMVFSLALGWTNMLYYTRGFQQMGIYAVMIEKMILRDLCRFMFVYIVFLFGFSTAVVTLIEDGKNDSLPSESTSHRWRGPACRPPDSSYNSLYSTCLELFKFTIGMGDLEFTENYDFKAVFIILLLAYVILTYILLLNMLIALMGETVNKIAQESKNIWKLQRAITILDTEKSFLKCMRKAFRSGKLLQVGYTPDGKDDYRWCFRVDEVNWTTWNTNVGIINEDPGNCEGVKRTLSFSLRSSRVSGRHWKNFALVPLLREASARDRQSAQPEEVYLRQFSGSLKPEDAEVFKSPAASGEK

Turning to `O=C(NCCc1ccccc1)Nc1cccc2c1CC(O)CC2` (stereo not drawn) [Example 2-32], the melting point lay within 161 to 163 °C. Further, in data set [1] (setting [2]), the IC50 is 500 to 1000 nM.

With `CCNC(=O)Nc1cccc2c1CC(O)CC2` (stereo not drawn) [Example 2-33], the melting point lay in the range of 216 to 217 °C. Moreover, in data set [1] (setting [2]), the IC50 was over 1000 nM.

Regarding `O=C(Nc1ccccc1)Nc1cccc2c1CC(O)CC2` (stereo not drawn) [Example 2-34], the melting point fell in the range of 198 to 199 °C. Besides, the IC50 in data set [1] (setting [2]) is 500 to 1000 nM.

`O=C(Nc1ccc(Cl)c(C(F)(F)F)c1)Nc1ccc(Br)c2c1CC(O)CC2` (stereo not drawn) [Example 2-38]: the melting point was 234 to 235 °C. Also, the IC50 in data set [1] (setting [2]) was under 100 nM.

For `Cc1ccc(NC(=O)Nc2ccc(Cl)c(C(F)(F)F)c2)c2c1CCC(O)C2` (stereo not drawn) [Example 2-39], the melting point lay within 219 to 220 °C. In data set [1] (setting [2]), the IC50 was under 100 nM.

On to `CN(C(=O)Nc1ccc(Cl)c(C(F)(F)F)c1)c1cccc2c1CC(O)CC2` (stereo not drawn) [Example 2-40], for which the melting point was in the range of 136 to 137 °C. The IC50 in data set [1] (setting [2]) lay in the range of 100 to 500 nM.

As to `CC1(O)CCc2cccc(NC(=O)Nc3ccc(Cl)c(C(F)(F)F)c3)c2C1` (stereo not drawn) [Example 2-41], the melting point amounted to 213 °C. In addition, in data set [1] (setting [2]), the IC50 was 100 to 500 nM.

In turn, `O=C(NCc1ccc(C(F)(F)F)cc1)Nc1cccc2c1C[C@H](O)CC2` [Example 4-4, N-{(R)-7-hydroxy-5,6,7,8-tetrahydro-naphthalen-1-yl}-N′-(4-trifluoromethyl-benzyl)-urea] had a melting point of 204.3 °C. For the same compound, the IC50 in data set [1] (setting [3]) was under 100 nM.

Compound `O=C(Nc1ccc(OC(F)(F)F)cc1)Nc1cccc2c1CC(O)CC2` (stereo not drawn) [Example 5-1, N-(7-hydroxy-5,6,7,8-tetrahydro-naphthalen-1-yl)-N′-(4-trifluoromethoxy-phenyl)-urea] had a melting point of 198 to 200 °C. The IC50 in data set [1] (setting [3]) was under 100 nM.

Compound `O=C(Nc1cccc(F)c1)Nc1cccc2c1CC(O)CC2` (stereo not drawn) [Example 5-3] gave a melting point of 204 to 205 °C. Further, the IC50 in data set [1] (setting [4]) is 100 to 500 nM.

For `O=C(Nc1ccccc1Br)Nc1cccc2c1CC(O)CC2` (stereo not drawn) [Example 5-4], the melting point lay within 196 to 197 °C. The IC50 in data set [1] (setting [4]) lay within 100 to 500 nM.

Compound `Cc1ccccc1NC(=O)Nc1cccc2c1CC(O)CC2` (stereo not drawn) [Example 5-6] yielded a melting point of 223 °C. Further, the IC50 in data set [1] (setting [4]) is 500 to 1000 nM.

As to `O=C(Nc1cccc(Oc2ccccc2)c1)Nc1cccc2c1CC(O)CC2` (stereo not drawn) [Example 5-10], the melting point was in the range of 194 to 195 °C. Besides, the IC50 in data set [1] (setting [4]) is under 100 nM.

On to `O=C(Nc1cccc(OC(F)(F)F)c1)Nc1cccc2c1CC(O)CC2` (stereo not drawn) [Example 5-11], for which the melting point is 203 to 204 °C. In addition, in data set [1] (setting [4]), the IC50 is under 100 nM.

`O=C(Nc1cccc(I)c1)Nc1cccc2c1CC(O)CC2` (stereo not drawn) [Example 5-13]: the melting point lay within 226 to 228 °C. Also, the IC50 in data set [1] (setting [4]) is under 100 nM.
